Results on eight compounds are retold here after patent US6673793B2, “Oxazinoquinolones useful for the treatment of viral infections” (Pharmacia & Upjohn Co., priority 2000, dated 2004).

Where only a bound is given, the exact number is not on record here.

One data set concerns the target T1, CMV polymerase (Human cytomegalovirus, UniProt P08546).
T1 construct: made in house; host or cells: recombinant baculovirus-infected SF-9 cells
Description: HCMV polymerase assay, scintillation proximity assay (SPA), modified version. In kind it is biochemical. The following applies: modified HCMV polymerase SPA assay: compounds diluted in 100% DMSO, 4.5 mM DTT in polymerase buffer, different lot of CMV polymerase; read-out: CMV polymerase IC50. In outline: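 Baculovirus/SF-9-expressed HCMV polymerase in SPA with 90 nM ^3H-dTTP and 6 nM biotinylated poly(dA)-oligo(dT), pH 7.5 HEPES/KCl/MgCl2/BSA, with or without 2 mM CHAPS. Runs 30 min at 25 C. or 37 C., EDTA stop, streptavidin-SPA beads counted; IC50 by linear regression. Modified version: compounds diluted in 100% DMSO rather than 50%, plus 4.5 mM DTT.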

T1 sequence (P08546 whole entry): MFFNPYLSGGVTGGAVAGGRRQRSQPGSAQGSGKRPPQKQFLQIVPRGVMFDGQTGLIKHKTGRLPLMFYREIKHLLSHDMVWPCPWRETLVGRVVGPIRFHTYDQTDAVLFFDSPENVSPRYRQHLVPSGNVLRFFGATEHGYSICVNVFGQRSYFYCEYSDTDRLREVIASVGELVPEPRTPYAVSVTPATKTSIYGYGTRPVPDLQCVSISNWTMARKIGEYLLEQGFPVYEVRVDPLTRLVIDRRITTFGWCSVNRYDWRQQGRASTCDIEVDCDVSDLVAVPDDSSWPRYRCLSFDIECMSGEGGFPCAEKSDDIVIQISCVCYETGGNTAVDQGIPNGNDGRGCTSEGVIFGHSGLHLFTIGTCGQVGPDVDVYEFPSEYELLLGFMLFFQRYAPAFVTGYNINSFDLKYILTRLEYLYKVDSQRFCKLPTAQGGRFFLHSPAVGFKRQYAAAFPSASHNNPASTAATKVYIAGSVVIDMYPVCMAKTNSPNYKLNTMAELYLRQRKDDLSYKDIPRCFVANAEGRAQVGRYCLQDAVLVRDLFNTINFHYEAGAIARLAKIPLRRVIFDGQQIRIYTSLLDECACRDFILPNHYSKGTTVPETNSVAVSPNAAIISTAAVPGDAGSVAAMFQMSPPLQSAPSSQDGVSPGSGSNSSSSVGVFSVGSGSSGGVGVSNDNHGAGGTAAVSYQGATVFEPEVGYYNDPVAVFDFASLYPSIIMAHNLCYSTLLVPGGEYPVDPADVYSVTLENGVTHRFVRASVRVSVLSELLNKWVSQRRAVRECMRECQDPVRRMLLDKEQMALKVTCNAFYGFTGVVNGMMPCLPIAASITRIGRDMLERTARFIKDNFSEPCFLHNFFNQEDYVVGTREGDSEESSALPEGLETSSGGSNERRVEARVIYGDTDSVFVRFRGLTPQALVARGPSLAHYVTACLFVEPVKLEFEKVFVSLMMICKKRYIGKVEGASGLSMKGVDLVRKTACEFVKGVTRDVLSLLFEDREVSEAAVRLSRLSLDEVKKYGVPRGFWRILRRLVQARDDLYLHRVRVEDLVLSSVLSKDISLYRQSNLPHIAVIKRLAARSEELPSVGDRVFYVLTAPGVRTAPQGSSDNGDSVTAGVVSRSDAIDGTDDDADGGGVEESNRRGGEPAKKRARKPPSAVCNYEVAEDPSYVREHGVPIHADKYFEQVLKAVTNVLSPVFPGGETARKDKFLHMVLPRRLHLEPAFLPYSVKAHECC

Turning to `O=C(NCc1ccc(Cl)cc1)c1cn2c3c(cc(CN4CCOCC4)cc3c1=O)OC(c1ccco1)C2` (stereo not shown) [Example 60, N-(4-Chlorobenzyl)-2-(2-furyl)-9-(morpholin-4-ylmethyl)-7-oxo-2,3-dihydro-7H-[1,4]oxazino[2,3,4-ij]quinoline-6-carboxamide], the melting point is 220 to 222.5 °C. The IC50 on CMV polymerase is 460 nM.
In the same order, the values of `COCOCc1cccc(C2Cn3cc(C(=O)NCc4ccc(Cl)cc4)c(=O)c4cc(CN5CCOCC5)cc(c43)O2)c1` (stereo not shown) [Example 61, N-(4-Chlorobenzyl)-2-{3-[(methoxymethoxy)methyl]phenyl}-9-(morpholin-4-ylmethyl)-7-oxo-2,3-dihydro-7H-[1,4]oxazino[2,3,4-ij]quinoline-6-carboxamide] are 186.5 to 189 °C and 540 nM.
In the same order, the values of `O=C(NCc1ccc(Cl)cc1)c1cn2c3c(cc(CN4CCOCC4)cc3c1=O)OC(c1cccc(CO)c1)C2` (stereo not shown) [Example 62, N-(4-Chlorobenzyl)-2-[3-(hydroxymethyl)phenyl]-9-(morpholin-4-ylmethyl)-7-oxo-2,3-dihydro-7H-[1,4]oxazino[2,3,4-ij]quinoline-6-carboxamide] are 229 to 233 °C and 380 nM.
In the same order, the values of `O=C(NCc1ccc(Cl)cc1)c1cn2c3c(cc(CN4CCOCC4)cc3c1=O)OC(c1cccc(O)c1)C2` (stereo not shown) [Example 63, N-(4-Chlorobenzyl)-2-(3-hydroxyphenyl)-9-(4-morpholinylmethyl)-7-oxo-2,3-dihydro-7H-[1,4]oxazino[2,3,4-ij]quinoline-6-carboxamide] are 213 °C (dec.) and 290 nM.
In the case of `O=C(NCc1ccc(Cl)cc1)c1cn2c3c(cc(CN4CCOCC4)cc3c1=O)OC(c1ccc(O)cc1)C2` (stereo not shown) [Example 65, N-(4-Chlorobenzyl)-2-(4-hydroxyphenyl)-9-(morpholin-4-ylmethyl)-7-oxo-2,3-dihydro-7H-[1,4]oxazino[2,3,4-ij]quinoline-6-carboxamide], the melting point is more than 260 °C. Besides, on CMV polymerase, the half-inhibitory concentration (IC50) turned out to be 450 nM.
In the same order, the values of `COCOCc1ccccc1C1Cn2cc(C(=O)NCc3ccc(Cl)cc3)c(=O)c3cc(CN4CCOCC4)cc(c32)O1` (stereo not shown) [Example 66, N-(4-Chlorobenzyl)-2-{2-[(methoxymethoxy)methyl]phenyl}-9-(morpholin-4-ylmethyl)-7-oxo-2,3-dihydro-7H-[1,4]oxazino[2,3,4-ij]quinoline-6-carboxamide] are 202.5 to 204.5 °C and 590 nM.
In the same order, the values of `COCOCc1ccc(C2Cn3cc(C(=O)NCc4ccc(Cl)cc4)c(=O)c4cc(CN5CCOCC5)cc(c43)O2)cc1` (stereo not shown) [Example 67, N-(4-Chlorobenzyl)-2-{4-[(methoxymethoxy)methyl]phenyl}-9-(morpholin-4-ylmethyl)-7-oxo-2,3-dihydro-7H-[1,4]oxazino[2,3,4-ij]quinoline-6-carboxamide] are 236 to 239 °C and 1690 nM.
In the same order, the values of `O=C(NCc1ccc(Cl)cc1)c1cn2c3c(cc(CN4CCOCC4)cc3c1=O)OC(c1ccccc1CO)C2` (stereo not shown) [Example 69, N-(4-Chlorobenzyl)-2-[2-(hydroxymethyl)phenyl]-9-(morpholin-4-ylmethyl)-7-oxo-2,3-dihydro-7H-[1,4]oxazino[2,3,4-ij]quinoline-6-carboxamide] are 218 to 223 °C (dec.) and 330 nM.
